Assay: Inhibition of MCT1 in human Raji cells assessed as inhibition of cell proliferation after 96 hrs by MTT assay

Compound | EC50 [nM]
CC(C)Cc1nn(C)c(=O)c2c(SCCCO)n(Cc3cc(NCCCCCNC(=O)[C@@H](N)CCC(N)=O)nc4ccccc34)cc12 | 0.8
CC(C)Cc1nn(C)c(=O)c2c(SCCCO)n(Cc3ccnc(NCCCCCN)c3)cc12 | 520
CC(C)Cc1nn(C)c(=O)c2c(SCCCO)n(Cc3ccnc(Cl)c3)cc12 | 1000
CC(C)Cc1nn(C)c(=O)c2c(SCCCO)n(Cc3ccnc(NCCCCCNC(=O)[C@@H](N)CCC(N)=O)c3)cc12 | 500
CC(C)Cc1nn(C)c(=O)c2c(SCCCO)n(Cc3ccc(NCCCCCN)nc3)cc12 | 420
CC(C)Cc1nn(C)c(=O)c2c(SCCCO)n(Cc3cc(NCCCCCN)nc4ccccc34)cc12 | 24
CC(C)Cc1nn(C)c(=O)c2c(SCCCO)n(Cc3ccc(Cl)nc3)cc12 | 690
CC(C)Cc1nn(C)c(=O)c2c(SCCCO)n(Cc3cc(Cl)nc4ccccc34)cc12 | 60
CC(C)Cc1nn(C)c(=O)c2c(SCCCO)n(Cc3ccc(NCCCCCNC(=O)[C@@H](N)CCC(N)=O)nc3)cc12 | 100

The remaining lines, values ahead:

EC50 [nM] | Compound
55 | CC(C)Cc1nn(C)c(=O)c2c(SCCCO)n(Cc3cnc(Cl)c4ccccc34)cc12
4 | CC(C)Cc1nn(C)c(=O)c2c(SCCCO)n(Cc3ccc(C#CCCCNC(=O)[C@@H](N)CCC(N)=O)c4ccccc34)cc12
0.8 | CC(C)Cc1nn(C)c(=O)c2c(SCCCO)n(Cc3ccc(C#CCCCOc4ccc(C[C@H](N)C(=O)O)cc4)c4ccccc34)cc12
11 | CC(C)Cc1nn(C)c(=O)c2c(SCCCO)n(Cc3ccc(Br)c4ccccc34)cc12
0.16 | CC(C)Cc1nn(C)c(=O)c2c(SCCCO)n(Cc3cnc(NCCCCCNC(=O)[C@@H](N)CCC(N)=O)c4ccccc34)cc12
0.8 | CC(C)Cc1nn(C)c(=O)c2c(SCCCO)n(Cc3cnc(NCCCCCN)c4ccccc34)cc12
